Source: patent publication US20250129021A1, “SMALL MOLECULE PROTEIN SYNTHESIS MODULATORS” (Interdict Bio, Inc., priority 2023, published 2025)

Key:
Assay type in all cases: biochemical
MYC = experiment: In vitro transcription-translation (IVTT) assay, MYC reporter; details: IVTT assay, HeLa S3 lysate, MYC reporter, normalized sfGFP/mCherry ratio; half-log dilutions 30 μM-0.1 μM, 2 hrs at 30° C.
Method in brief: (§1)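 Reporter: mCherry, P2A, then 3×FLAG-target peptide-sfGFP fusion, IRES-initiated; HeLa S3 lysate IVTT; cpd dilutions 30 μM−0.1 μM half-log in 100% DMSO (dilution-plate conc); DNA added last; 2 h, 30° C; PBS quench.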

NFKB1 = experiment: In vitro transcription-translation (IVTT) assay, NFKB1 reporter; details: HeLa S3 lysate, 2 hrs at 30° C.
Method: (§2) Each preparation takes 8 cell pellets (4 ml packed volume each, approximately 1.0×10^9 cells per pellet). Thaw cell pellets from −80° C. on ice for 90 mins. Lay pellets horizontally on top of the ice and rotate every 30 mins to ensure even thawing. Once thawed, add 4 mL of cold lysis buffer to each pellet, and using a serological pipet, gently pipet up and down to break up clumps. Incubate resuspended cells in ice for an additional 30 mins (plunged into ice). During 30 min incubation, rinse and RNase-zap (Ambion) glass dounces (use loose pestle “A”), gently dry and place on ice until needed. Prepare RNase-free Eppendorf tubes for spinning and for batch storage. […]
(§3) In vitro transcription-translation assay setup: Each assay includes a master mix containing lysate and shared components, a 96-well plate containing compound titrations for testing, a 96-well DNA plate with reporter constructs to be tested, 96-well skirted PCR plates, and 96-well flat-bottom, black, fluorescent assay plates. […] After 2 hrs, quench the assay using 45 μL of PBS, and transfer 50 μL to a flat-bottom black microplate Quantify the sfGFP and mCherry signals from each well on each plate, taking 3 reads of each plate, and perform data analysis below.
(§4) In vitro transcription-translation assay data analysis: Each plate is read three times in channels for both sfGFP and mCherry signals. […]

STING = experiment: In vitro transcription-translation (IVTT) assay, STING reporter; details: HeLa S3 lysate, 2 hrs at 30° C.
Method: as §2, §3, §4

CCND1 = experiment: In vitro transcription-translation (IVTT) assay, CCND1 reporter; details: IVTT, HeLa S3 lysate, 2 hrs at 30° C.
Method in brief: as §1

MCL-1 = experiment: In vitro transcription-translation (IVTT) assay, MCL-1 reporter; details: IVTT, HeLa S3 lysate, 2 hrs at 30° C.; read-out: MCL1 IC50
Method in brief: as §1

cGAS = experiment: In vitro transcription-translation (IVTT) assay, cGAS reporter; details: HeLa S3 lysate, 2 hrs at 30° C.
Method: as §2, §3, §4

CCNTB1 = experiment: In vitro transcription-translation (IVTT) assay, CCNTB1 reporter; details: HeLa S3 lysate, 2 hrs at 30° C.
Method in brief: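 HeLa S3 lysate-based coupled transcription-translation reactions with reporter plasmids, compounds in half-log dilutions (30 μM−0.1 μM, in DMSO), 2 h at 30° C. sfGFP/mCherry ratio, corrected for no-DNA background, normalized to no-drug control and fitted for IC50.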

JAK1 = experiment: In vitro transcription-translation (IVTT) assay, JAK1 reporter; details: HeLa S3 lysate, 2 hrs at 30° C.
Method: as §2, §3, §4

Measured: IC50

O=C(NCc1ccccc1)O[C@@H]1[C@@H](O)CN[C@@H]1Cc1ccc(-c2ccc3c(c2)CNC3)cc1 [V188347, (2R,3S,4S)-2-{[4-(2,3-dihydro-1H-isoindol-5-yl)phenyl]methyl}-4-hydroxypyrrolidin-3-yl N-benzylcarbamate]
< 10 µM: all assays above

O=C(NCc1cccc(F)c1)O[C@@H]1[C@@H](O)CN[C@@H]1Cc1ccc(-c2cnco2)cc1 [V190545, (2R,3S,4S)-4-hydroxy-2-{[4-(1,3-oxazol-5-yl)phenyl]methyl}pyrrolidin-3-yl N-[(3-fluorophenyl)methyl]carbamate]
not listed: NFKB1
< 10 µM: all other assays above
